Data set [1] is described as follows: THC pharmacokinetics in wild-type and FABP1-KO mice (LC-MS/MS of brain and plasma). The note with it: THC 10 mg/kg i.p.; for AUC: 0-24 h. On the procedure:
The pharmacokinetics of THC were subsequently examined to determine whether FABP1 regulates THC biotransformation in vivo. Wild-type and FABP1-KO mice were administered a single dose of THC (10 mg/kg, i.p.) and blood plasma and brains were harvested at several time points during a 24-hour time course (0, 0.5, 1, 2, 3, 4, 6, 7, and 24 hours post-THC). Levels of THC and its major primary and secondary metabolites (11-OH-THC and THC-COOH) were subsequently quantified by LC-MS/MS.
Mice were administered THC (10 mg/kg, i.p.) and plasma and brain samples were collected at the following time points: 0, 0.5, 1, 2, 3, 4, 6, 7, 24 hours. Tissues were immediately placed on dry ice and stored at −80 °C until processing. The AUC from time 0 to 24 h was calculated by the trapezoidal rule.
The tissues were rapidly thawed, spiked with 25 μl deuterated internal standard solution (containing THC-d3, 11-OH-THC-d3, and THC-COOH-d3; 5 ng/mL each, in methanol) (Cerillient Corporation, Round Rock, TX, USA) and homogenized on ice in Tris, pH 8.0. Protein precipitation was performed by adding two volumes ice-cold acetonitrile drop-wise while vortexing, centrifuged at 10,000 RCF for 10 minutes at 4 °C, and stored overnight at −20 °C to allow time for complete phase separation. The organic phase was transferred to a new glass tube and dried down under a steady stream of argon gas. The dried samples were resuspended in 100 μl 1:1 acetonitrile:ddH2O and submitted to the Stony Brook Proteomics Center for LC-MS/MS quantification of THC and THC metabolites.

The target in data set [2] is T1, human FABP1 (Homo sapiens, UniProt P07148).
T1 construct: His tag (N); host or cells: BL21(DE3) Escherichia coli
T1 sequence (P07148 1-127): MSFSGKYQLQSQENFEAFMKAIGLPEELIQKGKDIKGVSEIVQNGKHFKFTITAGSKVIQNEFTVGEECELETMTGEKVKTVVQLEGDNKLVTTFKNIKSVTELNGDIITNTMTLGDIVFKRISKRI
The data set is described as follows: DAUDA fluorescence displacement binding assay. The note with it: for maximal displacement of the fluorescent probe DAUDA: maximal effect in the tested concentration range. How it is done: Human FABP1 in a pNIC28-Bsa4 vector was obtained from Addgene (plasmid #42344; Addgene, Cambridge, MA, USA). Following sequence verification the construct was transformed into BL21(DE3) Escherichia coli for expression. The recombinant FABP1 protein was purified by nickel-affinity chromatography as described previously. Residual endogenous bacterial lipids were stripped from the purified protein by incubation in a column of hydroxyalkoxypropyl-dextran (Sigma Chemical Co., St Louis, MO, USA) for 1 hour at 37 °C.
Binding assays were carried out in 96-well Costar® plates (Corning Life Science, Kennebunk, ME, USA). FABP1 (3 μM) was incubated with DAUDA (500 nM), in binding assay buffer (30 mM Tris-HCl, 100 mM NaCl, pH 7.6). Competitor test compounds (0.1–500 μM) were then introduced to the well, mixed, and the system was allowed to equilibrate for 20 minutes at 25 °C in the dark. All experimental conditions were tested in triplicate. […] Loss of fluorescence intensity was monitored with an F5 Filtermax Multi-Mode Microplate Reader (Molecular Devices, Sunnyvale, CA, USA) using excitation/emission wavelengths = 345/535 nm. Following background subtraction, raw fluorescence intensity values were normalized and fit to a one-site competition binding analysis using the Graphpad Prism software.

Data set [3] deals with T1, human FABP1. Briefly: DAUDA probe saturation binding to FABP1 (probe Kd determination). The note with it: FABP1 1 μM, DAUDA 0–16 μM. How it is done:
Recombinant human FABP1 (1 μM) was titrated with DAUDA (0–16 μM). The raw fluorescence intensity at each data point was corrected by subtracting the signal from each respective probe concentration in the absence of protein. Kd and Bmax were then calculated by fitting the titration curve to the single-site saturation binding equation [Y = Bmax*X/(Kd + X)] using the GraphPad Prism software (Prism version 7.0 for Mac OS: Graphpad software Incorporated, La Jolla, CA, USA).

For data set [4], the system named is locomotor activity of wild-type and FABP1-KO mice. The data set is described as follows: Home-cage spontaneous locomotor activity (photobeam system). Particulars: THC 10 mg/kg i.p., 12 hour period, both sexes. It is filed as in vivo, mouse. On the procedure:
(§1) Hypothermia and spontaneous locomotor activity were assessed over a 12 hour period following a single intraperitoneal (i.p.) injection of 10 mg/kg THC or vehicle (1:1:18 DMSO:Cremophor-EL:saline) to naïve mice. This dose was selected because it produces submaximal cannabimimetic effects and potentiation of THC effects is unlikely to be hampered by a ceiling effect[33],[34]. All mice were kept on a 12/12 hour light/dark cycle and THC was administered immediately prior to the dark phase to control for circadian effects. […] Therefore, in the present study THC pharmacodynamics were independently assessed in mice of both genders.
Locomotor activity was measured by the home-cage photobeam activity system (San Diego Instruments, San Diego, CA, USA). In this system each mouse home-cage was surrounded by a 4 × 8 photobeam array that detected and recorded movements in the X and Y directions. The animals were first conditioned to the cages in the testing room for one week to avoid novelty induced changes in locomotor activity. THC or vehicle were injected 10 minutes prior to the onset of the dark cycle and motility data was recorded over the next 12 hour period.

The subject of data set [5] is body temperature of wild-type and FABP1-KO mice. Briefly: THC-induced hypothermia (implanted iButton Thermocron core temperature). It is filed as in vivo, mouse. The note with it: THC 10 mg/kg i.p. How it is done:
as §1
Mice were anesthetized with an i.p. injection of a surgical mixture of ketamine (100 mg/kg) and xylazine (10 mg/kg). Thermocron iButton® (Dallas Semiconductor Company, Dallas, TX, USA) temperature data loggers were sterilized with 70% ethanol and surgically implanted into the abdominal cavities. The mice were permitted to recover from surgery for at least one week prior to being subjected to any experiments. The factory calibrated thermocrons were programmed to record temperature measurements every three minutes with 0.5 °C accuracy and 0.0625 °C precision.

[6] abbreviates: mouse, plasma, ip, 10 mg/kg, AUC, FABP1-KO mice.
[7] abbreviates: mouse, plasma, ip, 10 mg/kg, AUC, wild-type mice.
The mark [8] stands for this setting: mouse, plasma, ip, 10 mg/kg, Cmax, FABP1-KO mice.
The mark [9] stands for this setting: mouse, plasma, ip, 10 mg/kg, Cmax, wild-type mice.

By Ki is commonly meant a measure of affinity in units of concentration, obtained from inhibition or displacement. A word on the Kd: it is the concentration at which binding is half-saturated. Low values mean tighter binding, high ones weaker binding.

Like-named read-outs stand apart in the source and are kept apart here.

With `CCCCCc1cc(O)c2c(c1)OC(C)(C)C1CCC(CO)=CC21` (stereo not shown) [11-OH-THC, 11-hydroxy-Δ^9-tetrahydrocannabinol], in data set [1] (brain and plasma), the “time remaining at detectable levels longer in FABP1-KO than in wild-type” value was in the range of 1 to 2 h. In addition, the Cmax in data set [1] (brain, FABP1-KO mice) turned out to be 243.6 ± 114.3 pmol/g; in data set [1] (brain, wild-type mice) it was 484.4 ± 207.8 pmol/g; in data set [1] (setting [8]), 50.6 ± 11.8 ng/mL; in data set [1] (setting [9]) it was 29.5 ± 6.17 ng/mL. For the same molecule, the “M/P: metabolite to parent (THC) ratio (AUCm/AUCp)” value is reported as 0.169 in data set [1] (brain, FABP1-KO mice); 0.918 in data set [1] (brain, wild-type mice); 0.0044 in data set [1] (plasma, FABP1-KO mice); 0.0052 in data set [1] (plasma, wild-type mice). Moreover, the AUC in data set [1] (brain, FABP1-KO mice) stood at 1244 ± 314.6 pmol·h/g; in data set [1] (brain, wild-type mice), 1327 ± 329.3 pmol·h/g; in data set [1] (setting [6]), 112 ± 18.4 ng·h/mL; in data set [1] (setting [7]), 59.4 ± 14.6 ng·h/mL. This molecule also yielded a Ki on human FABP1 [2] of 7.12 ± 0.79 µM.

Consider `CCCCCCC(C)(C)c1cc(O)c2c(c1)OC(C)(C)[C@@H]1CC=C(C(=O)O)C[C@@H]21` [AJA, ajulemic acid], for which, at human FABP1 [2], the Ki is 26 ± 3.8 µM and the “maximal displacement of the fluorescent probe DAUDA” value (“maximal displacement” for short) was “fully displace DAUDA”.

As to `C=C(C)[C@@H]1CCC(C)=C[C@H]1c1c(O)cc(CCCCC)cc1O` [CBD, cannabidiol], the inhibition constant (Ki) on human FABP1 [2] (FABP1 3 μM, DAUDA 500 nM, 25 °C, 20 min, pH 7.6, read-out: Ki (DAUDA displacement from FABP1)) was found to be 3.95 ± 0.65 µM. Also, the “maximal displacement” value at human FABP1 [2] was ~50%.

In the case of `CN(C)c1cccc2c(S(=O)(=O)NCCCCCCCCCCC(=O)O)cccc12` [DAUDA, 11-(Dansylamino)unadecanoic acid], binding at human FABP1 [3] was put at a Kd of 1.07 ± 0.17 µM.

On to `CCCCCCCCCCCCCCCC(=O)NCCO` [PEA, Palmitoylethanolamide], for which the “remaining DAUDA fluorescence” value at human FABP1 [2] (at 50 µM) was found to be 101.8 ± 3.3 % fluorescence.

Take `CCCCCc1cc(O)c2c(c1)OC(C)(C)[C@@H]1CCC(C)=C[C@@H]21` [THC, ∆^9-tetrahydrocannabinol]: the “effect on spontaneous home-cage motility” value in data set [4] is “significant decrease in overall motility”. The Cmax in data set [1] (brain, FABP1-KO mice) was determined as 881.9 ± 574.1 pmol/g; in data set [1] (brain, wild-type mice), 531.0 ± 71.35 pmol/g; in data set [1] (setting [8]) it was 34800 ± 2000 ng/mL; in data set [1] (setting [9]), 13600 ± 2620 ng/mL. The AUC in data set [1] (brain, FABP1-KO mice) is 7363 ± 949.0 pmol·h/g; in data set [1] (brain, wild-type mice) it was 1446 ± 411.7 pmol·h/g; in data set [1] (setting [6]) it was 25200 ± 7330 ng·h/mL; in data set [1] (setting [7]) it was 11500 ± 2080 ng·h/mL. In addition, the “increase in the brain AUC, FABP1-KO compared to WT” value in data set [1] (brain) is on record as ~ 6 fold. The “maximum mean body temperature change” value in data set [5] (FABP1-KO females) was −8.1 °C; in data set [5] (FABP1-KO males), −7.4 °C; in data set [5] (WT females), −4.8 °C; in data set [5] (WT males), −4.8 °C. Affinity at human FABP1 [2] was put at a Ki of 2.93 ± 0.27 µM. The “maximal displacement” value at human FABP1 [2] was ~50%.

In the case of `CCCCCc1cc(O)c2c(c1)OC(C)(C)C1CCC(C(=O)O)=CC21` (stereo not shown) [THC-COOH, 11-nor-9-carboxy-Δ^9-tetrahydrocannabinol], the Cmax in data set [1] (brain, FABP1-KO mice) was found to be 50.02 ± 3.16 pmol/g; in data set [1] (brain, wild-type mice) it was 58.33 ± 1.21 pmol/g; in data set [1] (setting [8]), 78.7 ± 2.26 ng/mL; in data set [1] (setting [9]) it was 87.1 ± 5.21 ng/mL. The “M/P: metabolite to parent (THC) ratio (AUCm/AUCp)” value in data set [1] (brain, FABP1-KO mice) is given as 0.071; in data set [1] (brain, wild-type mice), 0.251; in data set [1] (plasma, FABP1-KO mice), 0.0215; in data set [1] (plasma, wild-type mice) it was 0.0440. The AUC in data set [1] (brain, FABP1-KO mice) worked out at 522.6 ± 194.4 pmol·h/g; in data set [1] (brain, wild-type mice), 362.8 ± 36.94 pmol·h/g; in data set [1] (setting [6]), 544 ± 21.2 ng·h/mL; in data set [1] (setting [7]), 506 ± 51.4 ng·h/mL. Also, the “lower THC-COOH/THC ratio (AUCTHC-COOH/AUCTHC) in FABP1-KO brains vs WT” value in data set [1] (brain) is given as 3–4 fold. Besides, the “∆tmax (later maximal level in FABP1-KO brain vs WT)” value in data set [1] (brain) came out at 4 h. Moreover, the Ki at human FABP1 [2] amounted to 11.2 ± 0.7 µM.

In turn, `CCCCCCCC/C=C\CCCCCCCC(=O)O` [oleic acid] registered a DAUDA displacement on human FABP1 [2] (at 10 µM) of 96.5 ± 0.15 % displacement.

These data come from publication PMC6527858, “FABP1 controls hepatic transport and biotransformation of Δ^9-THC” (Scientific Reports, 2019).
